Results as given in patent US20130130238A1, “Fluorimetric Process for Evaluating the Influence of A Condition on A Biological Sample and Applications Thereof” (NOVALEADS, priority 2008, published 2013).

Columns and labels:
Format in all cases: cell-based
HeLa cells [1] = assay: Kinetic profile of SYTO62 fluorescence under continuous illumination, HeLa cells treated with anticancer agent; settings: 0.1 μM and 1 μM, 24 hours, 10 μM SYTO62, illumination 50 seconds at 488 nm
Method: The intensity of fluorescence is then measured every second. Each intensity value is then expressed as a percentage of the first fluorescence value measured. (IF: intensity of fluorescence; T: illumination time). HeLa cells (Sigma-Aldrich) are plated into a 96-well format transparent-bottomed black microplate at 20000 cells per well the day before the experiment. […] The intensity of fluorescence emitted by the biosensor is then measured every second.

HepG2 cells = assay: Kinetic profile of SYTO13 fluorescence under continuous illumination, HepG2 cells treated with okadaic acid; settings: 0.01, 0.031, 0.1, 0.31 and 1 μM, 24 hours, 2 μM final SYTO13, illumination 20 seconds at 488 nm
Method: The cells were then labelled with a solution of SYTO13 of 2 μM final concentration then subjected to continuous illumination for 20 seconds. The intensity of fluorescence is then measured every 0.4 seconds. Each intensity value is then expressed as a percentage of the first fluorescence value measured. (IF: intensity of fluorescence; T: illumination time).
HepG2 cells (ATCC) are plated into a 96-well format transparent-bottomed black microplate at 20000 cells per well two days before the experiment. The day before the test the cells are or are not treated with 75 μl of 0.01, 0.031, 0.1, 0.31 and 1 μM solutions of okadaic acid (Sigma-Aldrich). The cells are incubated for 24 hours.
On the day of the test, the cells are labelled for 30 minutes at 37° C. with 25 μl of an 8 μM solution of SYTO13 (Invitrogen) (i.e. 2 μM final) prepared in MEM culture medium (Invitrogen).
The samples are placed under a fluorescence microscope at ×100 magnification then subjected to continuous illumination at 488 nm with a mercury lamp for 20 seconds. The intensity of fluorescence emitted by the biosensor is then measured every 0.4 seconds.

HeLa cells [2] = assay: Kinetic profile of SYTO13 or SYTO15 fluorescence under continuous illumination, HeLa cells treated with apoptogenic agent; settings: 1 μM, 7 hours
Method: HeLa cells were treated for 7 hours with (∘, Δ) or without ([…], ▴) 1 μM staurosporine. The cells were then labelled with a 10 μM solution of SYTO13 (Δ, ▴) or SYTO15 (∘, […]) then subjected to continuous illumination for 300 seconds. The intensity of fluorescence is then measured every 5 seconds. Each intensity value is then expressed as a percentage of the first fluorescence value measured. (IF: intensity of fluorescence; T: illumination time).
HeLa cells (Sigma-Aldrich) are plated into a 96-well format transparent-bottomed black microplate at 20000 cells per well the day before the experiment. On the day of the test the cells are or are not treated with 1 μM of staurosporine for 7 hours. The cells are then labelled for 20 minutes with 50 μl of a 10 μM solution of SYTO13 (Invitrogen) or SYTO15 (Invitrogen) prepared in buffer A.
The labelled cells are placed under a fluorescence reader of the Varioskan type (Thermo Electron Corporation) equipped with a Xenon Flash lamp. The samples labelled with SYTO13 and SYTO15 are then subjected for 300 seconds to continuous illumination at 488 nm and 516 nm respectively. The fluorescence intensities emitted by these biosensors are then measured every 5 seconds.

HeLa cells [3] = assay: Kinetic profile of SYTO62 fluorescence under continuous illumination, HeLa cells treated with apoptotic agent; settings: 7 hours, 10 μM SYTO62, illumination 40 seconds at 488 nm
Method: HeLa cells were treated for 7 hours with (Δ, □, ⋄) or without (∘) 0.1 μM (Δ), 0.5 μM (□) and 1 μM (⋄) staurosporine. The cells were then labelled with a 10 μM solution of SYTO62 then subjected to continuous illumination for 40 seconds. The intensity of fluorescence is then measured every second. Each intensity value is then expressed as a percentage of the first fluorescence value measured. (IF: intensity of fluorescence; T: illumination time). HeLa cells (Sigma-Aldrich) are plated into a 96-well format transparent-bottomed black microplate at 20000 cells per well the day before the experiment. On the day of the test the cells are or are not treated with 0.1, 0.5 and 1 μM of staurosporine (Sigma-Aldrich) for 7 hours. The cells are then labelled for 20 minutes with 50 μl of a 10 μM solution of SYTO62 (Invitrogen) prepared in a buffer containing 25 mM Hepes, 140 mM NaCl, 1 mM EDTA and 0.1% bovine serum albumin (BSA), pH 7.4 (buffer A). The samples are placed under a fluorescence microscope (Leica DMIRB) at ×100 magnification then subjected to continuous illumination at 488 nm with a mercury lamp (HBO […]/2) for 40 seconds. The intensity of fluorescence emitted by the biosensor is then measured every second.

## CC(=O)O[C@H]1C(=O)[C@@]2(C)[C@H]([C@H](OC(=O)c3ccccc3)[C@]3(O)C[C@H](OC(=O)[C@H](O)[C@@H](NC(=O)c4ccccc4)c4ccccc4)C(C)=C1C3(C)C)[C@]1(OC(C)=O)CO[C@@H]1C[C@@H]2O [Taxol, Paclitaxel]
HeLa cells [1]
  variation in fluorescence measured under illumination: dose-dependent decrease in the variation in fluorescence

## C=C1[C@@H](O)[C@@H]2O[C@]3(CC[C@H](/C=C/[C@@H](C)[C@@H]4CC(C)=C[C@@]5(O[C@H](C[C@@](C)(O)C(=O)O)CC[C@H]5O)O4)O3)CC[C@H]2O[C@@H]1[C@@H](O)C[C@H](C)[C@H]1O[C@@]2(CCCCO2)CC[C@H]1C [okadaic acid]
HepG2 cells
  variation in fluorescence measured under illumination: dose-dependent decrease in the variation in fluorescence

## CN[C@@H]1C[C@H]2O[C@@](C)([C@@H]1OC)n1c3ccccc3c3c4c(c5c6ccccc6n2c5c31)C(=O)NC4 [staurosporine]
HeLa cells [2]; 10 μM SYTO13, illumination 300 seconds at 488 nm
  increase in the fluorescence measured under continuous illumination: does not induce an increase in the fluorescence measured
HeLa cells [2]; 10 μM SYTO15, illumination 300 seconds at 516 nm
  increase in the fluorescence measured under continuous illumination: does not induce an increase in the fluorescence measured
HeLa cells [3]; 0.1 μM
  increase in the intensity of fluorescence measured under continuous illumination: a weaker increase in fluorescence than in the untreated condition
HeLa cells [3]; 0.5 μM
  increase in the intensity of fluorescence measured under continuous illumination: an increase in fluorescence is no longer measured
HeLa cells [3]; 1 μM
  increase in the intensity of fluorescence measured under continuous illumination: an increase in fluorescence is no longer measured
